Test results reported in US20080207634A1, “Chemical Compounds” (priority 2004, published 2008).

Columns and labels:
HIV = experiment: HOS HIV anti-infectivity assay (strain not stated); assay type: cell-based; conditions: Human immunodeficiency virus 1, activity level class, read-out: Antiviral acitivity
Experimental: (§1) Compounds were profiled against two HIV-1 viruses, the M-tropic (CCR5 utilizing) Ba-L strain and the T-tropic (CXCR4 utilizing) IIIB strain. Both viruses were propagated in human peripheral blood lymphocytes. Compounds were tested for there ability to block infection of the HOS cell line (expressing hCXCR4/hCCR5/hCD4/pHIV-LTR-luciferase) by either HIV-1 Ba-L or HIV-1 IIIB. Compound cytotoxicity was also examined in the absence of virus addition.
(§2) HOS cells (expressing hCXCR4/hCCR5/hCD4/pHIV-LTR-luciferase) were harvested and diluted in Dulbeccos modified Eagles media supplemented with 2% FCS and non-essential amino acid to a concentration of 60,000 cells/ml. The cells were plated into 96-well plates (100 ul per well) and the plates were placed in a tissue culture incubator (37° C.; 5% CO2/95% air) for a period of 24 h.
(§3) Subsequently, 50 ul of the desired drug solution (4 times the final concentration) was added to each well and the plates were returned to the tissue culture incubator (37° C.; 5% CO2/95% air) for 1 h. Following this incubation 50 ul of diluted virus was added to each well (approximately 2 million RLU per well of virus). The plates were returned to the tissue culture incubator (37° C.; 5% CO2/95% air) and were incubated for a further 96 h.
(§4) Following this incubation the endpoint for the virally infected cultures was quantified following addition of Steady-Glo Luciferase assay system reagent (Promega, Madison, Wis.). Cell viability or non-infected cultures was measured using a CellTiter-Glo luminescent cell viability assay system (Promega, Madison, Wis.). All luminescent readouts are performed on a Topcount luminescence detector (Packard, Meridien, Conn.).

[1] = system: HIV-1 IIIB (T-tropic, CXCR4 utilizing); experiment: HOS HIV-1 infectivity assay, IIIB strain; assay type: cell-based; conditions: Human immunodeficiency virus 1; HOS cells infected with HIV-1 IIIB, 96 h, luciferase; read-out: HOS (3B)
Experimental: as §1, §2, §3, §4

human CXCR4 = biological target: T1, human CXCR4 (Homo sapiens, UniProt P61073); experiment: Functional FLIPR assay (block of SDF-1 alpha induced [Ca2+]i change); assay type: cell-based; conditions: HEK-293 cells with human CXCR4 BacMam and Gqi5 BacMam; antagonism of SDF-1 alpha; read-out: Functional assay (pIC50) (converted)
T1 construct: expressed in transfected cells; host or cells: HEK-293 cells (stably expressing human macrophage scavenging receptor) transduced with human CXCR4 BacMam and Gqi5 BacMam
Experimental: Human embryonic kidney (HEK-293) cells were maintained and harvested as described above. Cells were plated in 96-well, black clear bottom, poly-lysine coated plates at a concentration of 40,000 cells per well in a final volume of 100 ul containing human CXCR4BacMam (MOI=25) and Gqi5 BacMam (MOI=12.5). The cells were incubated at 37° C., 5% CO2, 95% humidity for 24 h to allow for protein expression.
After the required incubation time the cells were washed once with 50 ul of fresh serum-free DMEM/F12 media containing probenicid. 50 ul of dye solution was then added to the cells (Calcium Plus Assay Kit Dye; Molecular Devices) was dissolved in 200 ml of the above probenicid/BSA containing media and incubated for 1 h. Cell plates were transferred to a Fluorometric Imaging Plate Reader (FLIPR). Upon addition the effect of the compounds on the change in [Ca^2+]i was examined to determine if the compounds were agonists or antagonists (ability to block SDF-1 alpha activity) at the CXCR4 receptor. IC50 values are determined and pKb values are calculated using the Leff and Dougall equation: KB═IC50/((2+([agonist]/EC50̂b) ̂1/b−1) Where IC50 is that defined by the antagonist concentration-response curve [agonist] is the EC80 concentration of agonist used EC50 is that defined by the agonist concentration-response curve b is the slope of the agonist concentration-response curve.

[2] = Cell/cell fusion assay (luciferase); assay type: cell-based; conditions: Homo sapiens, HEK293; 24 h incubation, luciferase readout; read-out: Fusion assay (pIC50) (converted)
Excerpt: The complete coding sequences of HIV-1 tat (GenBank Accession No. X07861) and rev (GenBank Accession No. M34378) were cloned into pcDNA3.1 expression vectors containing G418 and hygromycin resistance genes, respectively. The complete coding sequence of the HIV-1 (HXB2 strain) gp160 envelope gene (nucleotide bases 6225-8795 of GenBank Accession No. K03455) was cloned into plasmid pCRII-TOPO. The three HIV genes were additionally inserted into the baculovirus shuttle vector, pFastBacMam1, under the transcriptional control of the CMV promoter. A construction of the pHIV—I LTR containing mutated NFkB sequences linked to the luciferase reporter gene was prepared by digesting pcDNA3.1, containing the G418 resistance gene, with Nru I and Bam HI to remove the CMV promoter. LTR-luc was then cloned into the Nru I/Bam HI sites of the plasmid vector. Plasmid preparations were performed after the plasmids were amplified in Escherichia coli strain DH5-alpha. The fidelity of the inserted sequences was confirmed by double-strand nucleotide sequencing using an ABI Prism Model 377 automated sequencer.
Recombinant BacMam baculoviruses were constructed from pFastBacMam shuttle plasmids by using the bacterial cell-based Bac-to-Bac system. Viruses were propagated in Sf9 (Spodoptera frugiperda) cells cultured in Hink's TNM-FH Insect media supplemented with 10% (v/v) fetal bovine serum and 0.1% (v/v) pluronic F-68 according to established protocols.
Human osteosarcoma (HOS) cells that naturally express human CXCR4 were transfected with human CCR5, human CD4 and the pHIV-LTR-luciferase plasmid using FuGENE 6 transfection reagent. Single cells were isolated and grown under selection condition in order to generate a stable HOS (hCXCR4/hCCR5/hCD4/pHIV-LTR-luciferase) clonal cell line. The cells were maintained in Dulbeccos modified Eagles media supplemented with 10% fetal calf serum (FCS), G418 (400 ug/ml), puromycin (1 ug/ml), mycophenolic acid (40 ug/ml), xanthine (250 ug/ml) and hypoxanthine (13.5 ug/ml) to maintain a selection pressure for cells expressing the LTR-luciferase, hCCR5 and hCD4, respectively. Human embryonic kidney (HEK-293) cells stably transfected to express the human macrophage scavenging receptor (Class A, type 1; GenBank Accession No. D90187), were maintained in DMEM/F-12 media (1:1) supplemented with 10% FCS and 1.5 ug/ml puromycin. The expression of this receptor by the HEK-293 cells enhances their ability to stick to tissue culture treated plasticware.
HEK-293 cells were harvested using enzyme-free cell dissociation buffer. The cells were resuspended in DMEM/F-12 media supplemented with 10% FCS and 1.5 ug/ml and counted. […]
Following the 24 h incubation, total cellular luciferase activity was measured using the LucLite Plus assay kit (Packard, Meridien, Conn.). […]

[3] = Compound cytotoxicity in the absence of virus (CellTiter-Glo); assay type: cell-based; conditions: human; HOS cells, no virus; read-out: Cytotox (pIC50) (converted)
Experimental: as §1, §2, §3, §4

T-tropic HIV = conditions: patients that are dual tropic or with only the T-tropic form of the virus; cited from earlier work

T1 sequence (P61073 whole entry): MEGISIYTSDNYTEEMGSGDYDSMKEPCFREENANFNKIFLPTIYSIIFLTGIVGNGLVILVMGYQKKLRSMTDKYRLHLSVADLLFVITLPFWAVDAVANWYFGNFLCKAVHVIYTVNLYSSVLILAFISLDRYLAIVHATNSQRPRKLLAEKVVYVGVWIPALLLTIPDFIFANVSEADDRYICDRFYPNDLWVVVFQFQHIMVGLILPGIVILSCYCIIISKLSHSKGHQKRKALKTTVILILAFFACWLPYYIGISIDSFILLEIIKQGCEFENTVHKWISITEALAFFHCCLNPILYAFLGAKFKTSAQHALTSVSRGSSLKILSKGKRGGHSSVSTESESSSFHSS

## CN(Cc1cn2c(N3CCC(N)CC3)cccc2n1)[C@H]1CCOc2cccnc21 [Example 10, (4S)—N-{[5-(4-Amino-1-piperidinyl)imidazo[1,2-a]pyridin-2-yl]methyl}-N-methyl-3,4-dihydro-2H-pyrano[3,2-b]pyridin-4-amine]
HIV
  IC50: < 100 nM

## CN(C)C1CCN(c2cccc3nc(CN(C)[C@H]4CCOc5cccnc54)cn23)C1 (stereo partly drawn) [Example 9, (4S)—N-({5-[3-(Dimethylamino)-1-pyrrolidinyl]imidazo[1,2-a]pyridin-2-yl}methyl)-N-methyl-3,4-dihydro-2H-pyrano[3,2-b]pyridin-4-amine]
HIV
  IC50: < 100 nM

## CN1CCC(N(C)c2cccc3nc(CN(C)C4CCOc5cccnc54)cn23)C1 (stereo not shown) [Example 12, N-Methyl-N-({5-[methyl(1-methyl-3-pyrrolidinyl)amino]imidazo[1,2-a]pyridin-2-yl}methyl)-3,4-dihydro-2H-pyrano[3,2-b]pyridin-4-amine]
HIV
  IC50: < 100 nM

## CN1CCN(c2cccc3nc(CN(C)C4CCOc5cccnc54)c(CO)n23)CC1 (stereo not shown) [Example 14, [2-{[3,4-dihydro-2H-pyrano[3,2-b]pyridin-4-yl(methyl)amino]methyl}-5-(4-methyl-1-piperazinyl)imidazo[1,2-a]pyridin-3-yl]methanol]
HIV
  IC50: < 100 nM

## CN1CCN(c2cccc3nc(CN(C)[C@H]4CCOc5cccnc54)cn23)CC1 [Example 13, (4S)—N-Methyl-N-{[5-(4-methyl-1-piperazinyl)imidazo[1,2-a]pyridin-2-yl]methyl}-3,4-dihydro-2H-pyrano[3,2-b]pyridin-4-amine]
HIV
  IC50: < 100 nM

## CN(C)CCN(C)c1cccc2nc(CN(C)C3CCOc4cccnc43)cn12 (stereo not shown) [Example 5]
[1]
  IC50: 61 nM
HIV
  IC50: < 100 nM
Human CXCR4
  IC50: 69.2 nM
[2]
  IC50: 61.7 nM
[3]
  IC50 at 97 h: > 10000 nM

## CN(Cc1cn2c(N3CCC(N)C3)cccc2n1)[C@H]1CCOc2cccnc21 (stereo partly drawn) [Example 11, (4S)—N-{[5-(3-Amino-1-pyrrolidinyl)imidazo[1,2-a]pyridin-2-yl]methyl}-N-methyl-3,4-dihydro-2H-pyrano[3,2-b]pyridin-4-amine]
HIV
  IC50: < 100 nM

## CN(Cc1cn2c(N3CCNC(=O)C3)cccc2n1)[C@H]1CCOc2cccnc21 [Example 7, 4-(2-{[(4S)-3,4-Dihydro-2H-pyrano[3,2-b]pyridin-4-yl(methyl)amino]methyl}imidazo[1,2-a]pyridin-5-yl)-2-piperazinone]
HIV
  IC50: 500 to 10000 nM

## c1cc(CN2CCCNCCNCCCNCC2)ccc1CN1CCCNCCNCCCNCC1 [AMD-3100]
T-tropic HIV
  T-tropic HIV viral load: significantly reduce T-tropic HIV viral load

## CN(Cc1cn2c(F)cccc2n1)C1CCOc2cccnc21 (stereo not shown) [Example 2, N-[(5-Fluoroimidazo[1,2-a]pyridin-2-yl)methyl]-N-methyl-3,4-dihydro-2H-pyrano[3,2-b]pyridin-4-amine]
[1]
  IC50: > 20000 nM
Human CXCR4
  IC50: > 10000 nM
[2]
  IC50: > 10000 nM
[3]
  IC50 at 97 h: > 10000 nM

## CN(Cc1cn2c(N3CCNCC3)cccc2n1)C1CCOc2cccnc21 (stereo not shown) [Example 4, N-Methyl-N-{[5-(1-piperazinyl)imidazo[1,2-a]pyridin-2-yl]methyl}-3,4-dihydro-2H-pyrano[3,2-b]pyridin-4-amine]
[1]
  IC50: 34 nM
HIV
  IC50: < 100 nM
Human CXCR4
  IC50: 25.1 nM
[2]
  IC50: 26.9 nM
[3]
  IC50 at 97 h: > 10000 nM

## CN1CCN(c2cccc3nc(CN(C)C4CCOc5cccnc54)cn23)CC1 (stereo not shown) [Example 3, N-Methyl-N-{[5-(4-methyl-1-piperazinyl)imidazo[1,2-a]pyridin-2-yl]methyl}-3,4-dihydro-2H-pyrano[3,2-b]pyridin-4-amine]
[1]
  IC50: 17 nM
HIV
  IC50: < 100 nM
Human CXCR4
  IC50: 6.92 nM
[2]
  IC50: 2.63 nM
[3]
  IC50 at 97 h: > 10000 nM

## CC(C)N1CCN(c2cccc3nc(CN(C)[C@H]4CCOc5cccnc54)cn23)CC1 [Example 8, (4S)—N-Methyl-N-({5-[4-(1-methylethyl)-1-piperazinyl]imidazo[1,2-a]pyridin-2-yl}methyl)-3,4-dihydro-2H-pyrano[3,2-b]pyridin-4-amine]
HIV
  IC50: < 100 nM
